According to patent US20240124483A1, “Methods for the Treatment of Fibrotic Disease” (SHY Therapeutics, LLC, priority 2021, published 2024):
Like-named read-outs stand apart in the source and are kept apart here.

Tests used:
KRas wild type = KRas wild type (Homo sapiens (Human), UniProt P01116); assay: Ras GTP Binding Domain Inhibition Assay, KRas wild type
Outline: (§1)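 Steps: coat His-tagged protein (10-30 μg/mL) on nickel wells overnight at 4° C; add test compound, 20 μM final or serial dilution, 1% DMSO, 3 h RT; optional Sos final hour; add 100 nM Cy3-GTP or Cy5-GTP, 45 min; wash and read fluorescence.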

Rho-A = Rho-A (Homo sapiens (Human), UniProt P61586); assay: Ras GTP Binding Domain Inhibition Assay, Rho-A; conditions: without SOS, read-out: Rho-A: % inh.
Sequence of Rho-A (P61586 whole entry, species assumed, the tested form may be a part): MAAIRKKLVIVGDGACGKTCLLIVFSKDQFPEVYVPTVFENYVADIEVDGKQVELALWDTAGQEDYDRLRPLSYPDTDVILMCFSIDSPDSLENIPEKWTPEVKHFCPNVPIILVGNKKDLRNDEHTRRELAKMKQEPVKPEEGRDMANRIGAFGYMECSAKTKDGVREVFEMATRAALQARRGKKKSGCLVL
Outline: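 His-tagged GTPase immobilized on nickel-coated plates (10-30 μg/mL, overnight, 4° C), then exposed to compound (20 μM or serial dilution for IC50, 1% DMSO) for 3 h at room temperature, with or without His-tagged Sos (residues 556-1049) in the final hour. Bound Cy3-GTP or Cy5-GTP (100 nM, 45 min) was read by fluorescence after washing.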

JNK = JNK Activation Assay in Panc-1 (western blot); type: cell-based, Human; set-up: key: Y = yes; N = No; conditions: at 10 μM
Outline: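 Cells were serum-starved overnight in 0.5% FBS, then given compound (10 μM single dose or serial dilutions, 0.3% DMSO) for 3 h at 37 °C. TGF-b1 at 10 ng/ml followed, 1 h for Panc-1 and 20 min for C2C12. Phospho-JNK (Thr183/Tyr185) was read by western blot of lysates.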

KRas G12D mutant = KRas G12D mutant (Homo sapiens (Human), UniProt P01116, G12D); assay: Ras GTP Binding Domain Inhibition Assay, KRas G12D mutant; conditions: for inhibition at 20 µM: Table 7; for KRas G12D mutant + SOS: % inh. / KRas G12D mutant: % inh.: 20 uM, Table 8
Sequence of KRas G12D mutant (P01116 other isoform, or with tags, fused parts or gaps G12D): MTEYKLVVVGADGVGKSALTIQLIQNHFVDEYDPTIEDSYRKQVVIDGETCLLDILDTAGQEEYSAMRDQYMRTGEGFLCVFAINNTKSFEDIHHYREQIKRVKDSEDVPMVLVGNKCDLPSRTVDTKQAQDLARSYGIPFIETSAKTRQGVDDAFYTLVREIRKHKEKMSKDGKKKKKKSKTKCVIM
Outline: as §1

MAPK p38 = MAPK p38 Activation Assay in Panc-1 (western blot); type: cell-based, Human; set-up: key: Y = yes; N = No; conditions: at 10 μM
Outline: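 Cells serum-starved overnight in 0.5% FBS, then compound 3 h at 37° C (10 μM or serial dilutions for IC50; 0.3% DMSO). TGF-b1 10 ng/ml stimulation followed: 1 h for Panc-1, 20 min for C2C12. Phospho-p38 (Thr180/Tyr182) measured by western blot of lysates.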

[1] = + SOS, read-out: KRas wild type + SOS: % inh.
[2] = without SOS, read-out: KRas wild type: % inh.
[3] = + SOS, read-out: KRas G12D mutant + SOS: % inh.
[4] = without SOS, read-out: KRas G12D mutant: % inh.

Sequence of KRas wild type (P01116 other isoform, or with tags, fused parts or gaps): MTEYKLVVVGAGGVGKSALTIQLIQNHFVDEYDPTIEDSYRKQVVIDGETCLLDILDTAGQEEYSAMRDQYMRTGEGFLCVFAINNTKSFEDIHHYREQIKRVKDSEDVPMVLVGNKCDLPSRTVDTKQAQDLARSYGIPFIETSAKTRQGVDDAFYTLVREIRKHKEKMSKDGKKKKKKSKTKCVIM

SMILES	inhibition at 20 µM (KRas wild type; [1])	inhibition at 20 µM (KRas wild type; [2])	inhibition at 20 µM (Rho-A)	Activation of JNK in PANC-1 (JNK)	inhibition at 20 µM (KRas G12D mutant; [3])	KRas G12D mutant + SOS: % inh. (KRas G12D mutant; + SOS)	inhibition at 20 µM (KRas G12D mutant; [4])	KRas G12D mutant: % inh. (KRas G12D mutant; without SOS)	Activation of MAPK p38 in PANC-1 (MAPK p38)
COCCOc1nc(-c2nccn2C)nc2sc(-c3ccn(C(C)C)n3)c(C)c12 [Compound 30, 6-(1-Isopropyl-1H-pyrazol-3-yl)-4-(2-methoxyethoxy)-5-methyl-2-(1-methyl-1H-imidazol-2-yl)thieno[2,3-d]pyrimidine]	0%	1 to 25%	0%	N	0%	0 (0 = 0% inhibition)	0%	0 (0 = 0% inhibition)	N
COCCCn1c(-c2nccn2C)nc2sc(-c3ccn(C(C)C)n3)c(C)c2c1=O [Compound 31, 6-(1-Isopropyl-1H-pyrazol-3-yl)-3-(3-methoxypropyl)-5-methyl-2-(1-methyl-1H-imidazol-2-yl)thieno[2,3-d]pyrimidin-4(3H)-one]	1 to 25%	1 to 25%	0%	N	0%	0 (0 = 0% inhibition)	0%	0 (0 = 0% inhibition)	N
COCCCOc1nc(-c2nccn2C)nc2sc(-c3ccn(C(C)C)n3)c(C)c12 [Compound 32, 6-(1-Isopropyl-1H-pyrazol-3-yl)-4-(3-methoxypropoxy)-5-methyl-2-(1-methyl-1H-imidazol-2-yl)thieno[2,3-d]pyrimidine]	76 to 100%	76 to 100%	76 to 100%	Y	46 to 75%	C (C = 46-75% inhibition)	46 to 75%	C (C = 46-75% inhibition)	N
COCCCCn1c(-c2nccn2C)nc2sc(-c3ccn(C(C)C)n3)c(C)c2c1=O [Compound 33, 6-(1-Isopropyl-1H-pyrazol-3-yl)-3-(4-methoxybutyl)-5-methyl-2-(1-methyl-1H-imidazol-2-yl)thieno[2,3-d]pyrimidin-4(3H)-one]	1 to 25%	0%	0%	N	0%	0 (0 = 0% inhibition)	0%	0 (0 = 0% inhibition)	N
COCCCCOc1nc(-c2nccn2C)nc2sc(-c3ccn(C(C)C)n3)c(C)c12 [Compound 34, 6-(1-Isopropyl-1H-pyrazol-3-yl)-4-(4-methoxybutoxy)-5-methyl-2-(1-methyl-1H-imidazol-2-yl)thieno[2,3-d]pyrimidine]	0%	1 to 25%	0%	Y	0%	0 (0 = 0% inhibition)	1 to 25%	A (A = 1-25% inhibition)	N
COc1cc(Cn2c(-c3nccn3C)nc3sc(-c4ccn(C(C)C)n4)c(C)c3c2=O)ncn1 [Compound 35, 6-(1-Isopropyl-1H-pyrazol-3-yl)-3-((6-methoxypyrimidin-4-yl)methyl)-5-methyl-2-(1-methyl-1H-imidazol-2-yl)thieno[2,3-d]pyrimidin-4(3H)-one]	1 to 25%	1 to 25%	0%	N	0%	0 (0 = 0% inhibition)	1 to 25%	A (A = 1-25% inhibition)	N
COCCCn1c(-c2nccn2C)nc2sc(-c3ccn(C(C)C)n3)c(-c3ccccc3)c2c1=O [Compound 36, 6-(1-Isopropyl-1H-pyrazol-3-yl)-3-(3-methoxypropyl)-2-(1-methyl-1H-imidazol-2-yl)-5-phenylthieno[2,3-d]pyrimidin-4(3H)-one]	1 to 25%	1 to 25%	0%	Y	0%	0 (0 = 0% inhibition)	0%	0 (0 = 0% inhibition)	Y
COCCCOc1nc(-c2nccn2C)nc2sc(-c3ccn(C(C)C)n3)c(-c3ccccc3)c12 [Compound 37, 6-(1-Isopropyl-1H-pyrazol-3-yl)-4-(3-methoxypropoxy)-2-(1-methyl-1H-imidazol-2-yl)-5-phenylthieno[2,3-d]pyrimidine]	1 to 25%	0%	0%	N	0%	0 (0 = 0% inhibition)	0%	0 (0 = 0% inhibition)	Y
COc1cccc(-c2sc3nc(-c4nccn4C)nc(N[C@H]4C[C@H](OC)C4)c3c2-c2ccccc2)c1F [Compound 40, 6-(2-Fluoro-3-methoxyphenyl)-N-((1r,3r)-3-methoxycyclobutyl)-2-(1-methyl-1H-imidazol-2-yl)-5-phenylthieno[2,3-d]pyrimidin-4-amine]	76 to 100%	46 to 75%	26 to 45%	Y	76 to 100%	D (D = 76-100% inhibition)	46 to 75%	C (C = 46-75% inhibition)	Y
COc1cccc(-c2sc3nc(-c4nccn4C)nc(N[C@H]4C[C@H](OC)C4)c3c2C)c1F [Compound 42, 6-(2-Fluoro-3-methoxyphenyl)-N-((1r,3r)-3-methoxycyclobutyl)-5-methyl-2-(1-methyl-1H-imidazol-2-yl)thieno[2,3-d]pyrimidin-4-amine]	76 to 100%	76 to 100%	46 to 75%	Y	76 to 100%	D (D = 76-100% inhibition)	26 to 45%	B (B = 26-45% inhibition)	Y
COc1nccc(-c2sc3nc(-c4nccn4C)nc(N[C@H]4C[C@H](OC)C4)c3c2-c2ccccc2)c1F [Compound 45, 6-(3-Fluoro-2-methoxypyridin-4-yl)-N-((1r,3r)-3-methoxycyclobutyl)-2-(1-methyl-1H-imidazol-2-yl)-5-phenylthieno[2,3-d]pyrimidin-4-amine]	76 to 100%	46 to 75%	46 to 75%	Y	46 to 75%	C (C = 46-75% inhibition)	46 to 75%	C (C = 46-75% inhibition)	N
COc1cc(-c2sc3nc(-c4nccn4C)nc(N[C@H]4C[C@H](OC)C4)c3c2-c2ccccc2)ccn1 [Compound 46, N-((1r,3r)-3-Methoxycyclobutyl)-6-(2-methoxypyridin-4-yl)-2-(1-methyl-1H-imidazol-2-yl)-5-phenylthieno[2,3-d]pyrimidin-4-amine]	76 to 100%	46 to 75%	46 to 75%	Y	46 to 75%	C (C = 46-75% inhibition)	46 to 75%	C (C = 46-75% inhibition)	N
